The values that follow come from patent US9630922B2, “3-spiro-7-hydroxamic acid tetralins as HDAC inhibitors” (Forma Therapeutics, Inc., priority 2015, dated 2017).

In this assay the target is T1, HDAC6 (Homo sapiens, UniProt Q9UBN7).
T1 construct: Full length human recombinant HDAC6 protein was expressed in baculoviral system; made in house; host or cells: baculoviral system
T1 sequence (Q9UBN7 1-1215): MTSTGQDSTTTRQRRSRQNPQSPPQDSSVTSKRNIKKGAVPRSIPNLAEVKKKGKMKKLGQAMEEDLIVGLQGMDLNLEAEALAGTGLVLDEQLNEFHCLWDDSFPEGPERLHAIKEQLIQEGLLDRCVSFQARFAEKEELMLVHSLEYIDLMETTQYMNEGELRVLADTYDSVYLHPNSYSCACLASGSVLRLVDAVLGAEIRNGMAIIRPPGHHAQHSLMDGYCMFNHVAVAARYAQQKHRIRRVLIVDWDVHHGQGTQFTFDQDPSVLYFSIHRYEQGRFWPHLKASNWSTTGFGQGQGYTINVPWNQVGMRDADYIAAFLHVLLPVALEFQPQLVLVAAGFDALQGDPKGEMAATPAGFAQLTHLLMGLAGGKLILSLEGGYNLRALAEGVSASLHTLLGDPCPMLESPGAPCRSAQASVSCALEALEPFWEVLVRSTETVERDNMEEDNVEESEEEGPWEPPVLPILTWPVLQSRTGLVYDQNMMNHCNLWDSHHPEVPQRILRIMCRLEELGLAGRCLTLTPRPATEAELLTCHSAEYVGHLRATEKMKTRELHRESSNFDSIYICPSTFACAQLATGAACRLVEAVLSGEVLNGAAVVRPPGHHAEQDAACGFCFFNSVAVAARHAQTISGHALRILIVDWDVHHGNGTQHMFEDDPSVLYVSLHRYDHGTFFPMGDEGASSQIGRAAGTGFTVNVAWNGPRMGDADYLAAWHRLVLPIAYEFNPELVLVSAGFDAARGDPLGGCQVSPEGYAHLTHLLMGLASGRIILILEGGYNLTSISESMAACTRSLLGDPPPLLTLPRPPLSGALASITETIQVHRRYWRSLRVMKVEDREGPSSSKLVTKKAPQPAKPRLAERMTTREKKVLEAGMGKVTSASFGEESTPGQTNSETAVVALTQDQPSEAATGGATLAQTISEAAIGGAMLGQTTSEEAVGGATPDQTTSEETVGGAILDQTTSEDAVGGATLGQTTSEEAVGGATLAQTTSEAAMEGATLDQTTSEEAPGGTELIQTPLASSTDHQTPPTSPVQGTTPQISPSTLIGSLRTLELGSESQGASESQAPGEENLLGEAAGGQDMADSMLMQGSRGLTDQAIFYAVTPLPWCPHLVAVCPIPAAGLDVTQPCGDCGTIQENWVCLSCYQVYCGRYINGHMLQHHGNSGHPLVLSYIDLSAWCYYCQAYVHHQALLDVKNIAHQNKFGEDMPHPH
Description: In vitro Histone Deacetylase Assay (enzymatic HDAC6 electrophoretic mobility shift assay). It is filed as biochemical. The note with it: full length human recombinant HDAC6, 1 nM enzyme, 2 μM peptide substrate RHKK(Ac)-NH2, 25° C.; read-out: HDAC6 activity range. The method, boiled down:
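Deacetylation was read by microfluidic mobility shift as product/(substrate+product) peak ratio and normalised to 0% and 100% inhibition controls. Reactions used 1 nM baculovirus-expressed full-length human HDAC6 and 2 μM labelled RHKK(Ac)-NH2 in pH 7.5 HEPES buffer with 1% DMSO at 25 °C. IC50 was from 4-parameter fits of 12 concentrations.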
Take `O=C(NO)c1ccc2c(c1)CC[C@]1(CCN(CC3CCC3)C1=O)C2` [Compound I-33, (R)-1′-(cyclobutylmethyl)-N-hydroxy-2′-oxo-3,4-dihydro-1H-spiro[naphthalene-2,3′-pyrrolidine]-6-carboxamide]: the IC50 is at most 0.1 µM.

Turning to `O=C(NO)c1ccc2c(c1)CC[C@]1(CCN(C/C=C/c3ccccc3)C1=O)C2` [Compound I-37, (R)-1′-cinnamyl-N-hydroxy-2′-oxo-3,4-dihydro-1H-spiro[naphthalene-2,3′-pyrrolidine]-6-carboxamide], the IC50 was at most 0.1 µM.

Regarding `O=C(NO)c1ccc2c(c1)CCC1(CCN(c3cccnc3)C1=O)S2(=O)=O` (centres unmarked) [Compound I-240, N-hydroxy-2-oxo-1-(pyridin-3-yl)spiro[pyrrolidine-3,2′-thiochromane]-6′-carboxamide 1′,1′-dioxide], the IC50 is 0.1 to 0.5 µM.

For the molecule `O=C(NO)c1ccc2c(c1)CCC1(CCN(c3nc4ccccc4[nH]3)C1=O)C2` (centres unmarked) [Compound I-5, 1′-(1H-benzo[d]imidazol-2-yl)-N-hydroxy-2′-oxo-3,4-dihydro-1H-spiro[naphthalene-2,3′-pyrrolidine]-6-carboxamide], the IC50 is at most 0.1 µM.

Turning to `O=C(NO)c1ccc2c(c1)CCC1(CCN(CC3CCCCC3)C1=O)C2` (centres unmarked) [Compound I-7, 1′-(cyclohexylmethyl)-N-hydroxy-2′-oxo-3,4-dihydro-1H-spiro[naphthalene-2,3′-pyrrolidine]-6-carboxamide], the IC50 lay in the range of 0.1 to 0.5 µM.

Turning to `COc1ccccc1CN1CC[C@@]2(CCc3cc(C(=O)NO)ccc3C2)C1=O` [Compound I-72, (S)-N-hydroxy-1′-(2-methoxybenzyl)-2′-oxo-3,4-dihydro-1H-spiro[naphthalene-2,3′-pyrrolidine]-6-carboxamide], the IC50 was at most 0.1 µM.

For the molecule `COc1cc(F)cc(N2CC[C@@]3(CCc4cc(C(=O)NO)ccc4C3)C2=O)c1` [Compound I-148, (2S)-1′-(3-fluoro-5-methoxyphenyl)-N-hydroxy-2′-oxo-3,4-dihydro-1H-spiro[naphthalene-2,3′-pyrrolidine]-6-carboxamide], the IC50 was at most 0.1 µM.

On to `O=C(NO)c1ccc2c(c1)CC[C@@]1(CCN(Cc3ccc4nonc4c3)C1=O)C2` [Compound I-70, (S)-1′-(benzo[c][1,2,5]oxadiazol-5-ylmethyl)-N-hydroxy-2′-oxo-3,4-dihydro-1H-spiro[naphthalene-2,3′-pyrrolidine]-6-carboxamide], for which the IC50 was at most 0.1 µM.

`O=C(NO)c1ccc2c(c1)CCC1(CC(=O)N(CC3COC3)C1)C2` (single isomer, unassigned) [Compound I-215]: the IC50 was at most 0.1 µM.

Regarding `O=C(NO)c1ccc2c(c1)CCC1(CC(=O)N(CC3COC3)C1)C2` (single isomer, unassigned) [Compound I-217], the IC50 is 0.1 to 0.5 µM.

Consider `O=C(NO)c1ccc2c(c1)CC[C@]1(CCN(CC(F)(F)F)C1=O)C2` [Compound I-165, (R)-N-hydroxy-2′-oxo-1′-(2,2,2-trifluoroethyl)-3,4-dihydro-1H-spiro[naphthalene-2,3′-pyrrolidine]-6-carboxamide], for which the IC50 is at most 0.1 µM.

As for `Cc1ccncc1N1CC[C@]2(CCc3cc(C(=O)NO)ccc3C2)C1=O` [Compound I-136, (R)-N-hydroxy-1′-(4-methylpyridin-3-yl)-2′-oxo-3,4-dihydro-1H-spiro[naphthalene-2,3′-pyrrolidine]-6-carboxamide], the IC50 was at most 0.1 µM.

With `O=C(NO)c1ccc2c(c1)CC[C@@]1(CCN(c3cncc(F)c3)C1=O)C2` [Compound I-153, (2S)-1′-(5-fluoropyridin-3-yl)-N-hydroxy-2′-oxo-3,4-dihydro-1H-spiro[naphthalene-2,3′-pyrrolidine]-6-carboxamide], the IC50 is at most 0.1 µM.

For the molecule `CC(C)CN1CC[C@]2(CCc3cc(C(=O)NO)ccc3C2)C1=O` [Compound I-159, (R)-N-hydroxy-1′-isobutyl-2′-oxo-3,4-dihydro-1H-spiro[naphthalene-2,3′-pyrrolidine]-6-carboxamide], the IC50 is at most 0.1 µM.

With `Cn1cc(N2CC[C@@]3(CCc4cc(C(=O)NO)ccc4C3)C2=O)cn1` [Compound I-170, (S)-N-hydroxy-1′-(1-methyl-1H-pyrazol-4-yl)-2′-oxo-3,4-dihydro-1H-spiro[naphthalene-2,3-pyrrolidine]-6-carboxamide], the IC50 was at most 0.1 µM.

Turning to `COCCn1c(CN2CC[C@@]3(CCc4cc(C(=O)NO)ccc4C3)C2=O)nc2ccccc21` [Compound I-23, (S)-N-hydroxy-1′-((1-(2-methoxyethyl)-1H-benzo[d]imidazol-2-yl)methyl)-2′-oxo-3,4-dihydro-1H-spiro[naphthalene-2,3′-pyrrolidine]-6-carboxamide], the IC50 was at most 0.1 µM.

With `COCCn1c(N2CC[C@]3(CCc4cc(C(=O)NO)ccc4C3)C2=O)nc2ccccc21` [Compound I-12, (R)-N-hydroxy-1′-(1-(2-methoxyethyl)-1H-benzo[d]imidazol-2-yl)-2′-oxo-3,4-dihydro-1H-spiro[naphthalene-2,3′-pyrrolidine]-6-carboxamide], the IC50 was in the range of 0.1 to 0.5 µM.

On to `O=C(NO)c1ccc2c(c1)CC[C@@]1(CCN(Cc3ccccc3F)C1=O)C2` [Compound I-84, (S)-1′-(2-fluorobenzyl)-N-hydroxy-2′-oxo-3,4-dihydro-1H-spiro[naphthalene-2,3′-pyrrolidine]-6-carboxamide], for which the IC50 was at most 0.1 µM.

Consider `O=C(NO)c1ccc2c(c1)CCC1(CC(=O)N(Cc3ccccc3)C1)C2` (single isomer, unassigned) [Compound I-216], for which the IC50 is at most 0.1 µM.

Take `CN1CC2(CCc3cc(C(=O)NO)ccc3C2)CC1=O` (single isomer, unassigned) [Compound I-202]: the IC50 was at most 0.1 µM.

On to `O=C(NO)c1ccc2c(c1)CC[C@@]1(CCCN(C3CCC3)C1=O)C2` (single isomer, unassigned) [Compound I-197], for which the IC50 is at most 0.1 µM.

As for `COc1ccc(N2CC[C@@]3(CCc4cc(C(=O)NO)ccc4C3)C2=O)cn1` [Compound I-118, (S)-N-hydroxy-1′-(6-methoxypyridin-3-yl)-2′-oxo-3,4-dihydro-1H-spiro[naphthalene-2,3′-pyrrolidine]-6-carboxamide], the IC50 was at most 0.1 µM.

For the molecule `Cc1ccccc1CN1CC[C@@]2(CCc3cc(C(=O)NO)ccc3C2)C1=O` [Compound I-66, (S)-N-hydroxy-1′-(2-methylbenzyl)-2′-oxo-3,4-dihydro-1H-spiro[naphthalene-2,3′-pyrrolidine]-6-carboxamide], the IC50 was at most 0.1 µM.

Consider `COc1ccccc1CN1CC[C@]2(CCc3cc(C(=O)NO)ccc3C2)C1=O` [Compound I-44, (R)-N-hydroxy-1′-(2-methoxybenzyl)-2′-oxo-3,4-dihydro-1H-spiro[naphthalene-2,3′-pyrrolidine]-6-carboxamide], for which the IC50 is at most 0.1 µM.

As for `O=C(NO)c1ccc2c(c1)CC[C@]1(CC(=O)N(c3ccccc3)C1)C2` (single isomer, unassigned) [Compound I-203], the IC50 was at most 0.1 µM.

Turning to `O=C(NO)c1ccc2c(c1)CC[C@@]1(CCN(Cc3ccc(S(=O)(=O)C(F)(F)F)cc3)C1=O)C2` [Compound I-107, (S)-N-hydroxy-2′-oxo-1′-(4-((trifluoromethyl)sulfonyl)benzyl)-3,4-dihydro-1H-spiro[naphthalene-2,3′-pyrrolidine]-6-carboxamide], the IC50 lay in the range of 0.1 to 0.5 µM.

On to `O=C(NO)c1ccc2c(c1)CCC1(CCCN(CC3CCC3)C1=O)C2` (single isomer, unassigned) [Compound I-186], for which the IC50 was at most 0.1 µM.

Take `CC(C)(C)Nc1cc(N2CC[C@]3(CCc4cc(C(=O)NO)ccc4C3)C2=O)ncn1` [Compound I-97, (R)-1′-(6-(tert-butylamino)pyrimidin-4-yl)-N-hydroxy-2′-oxo-3,4-dihydro-1H-spiro[naphthalene-2,3′-pyrrolidine]-6-carboxamide]: the IC50 is at most 0.1 µM.

Consider `O=C(NO)c1ccc2c(c1)CC[C@]1(CC(=O)N(Cc3cccnc3)C1)C2` (single isomer, unassigned) [Compound I-226], for which the IC50 is at most 0.1 µM.
